# In patent US20230398130A1, “METHODS AND COMPOSITIONS FOR DIFFERENTIATING STEM CELLS” (Massachusetts Institute of Technology, priority 2020, published 2023):
# Assays:
# ISC-enriched organoids [1] = assay: Primary screen, 384-well 2.5-D organoid differentiation (ENR+CD, 6 days): basal lysozyme secretion (LYZ.NS); format: cell-based, murine; conditions: for Dose.FC.LYZ.NS: FC vs plate median; for SSMD.LYZ.NS: strictly standardized mean difference; for Dose.FC.LYZ.NS (log 2 fold change): vs plate median
# From the text: (§1) High-throughput screening.
# ISC-enriched organoids [2] = assay: Primary screen, 384-well 2.5-D organoid differentiation (ENR+CD, 6 days, Target Selective Inhibitor Library, vs whole-plate median): ATP (CellTiter-Glo 3D, CTG); conditions: for Dose.FC.CTG: FC vs plate median; for SSMD.CTG: strictly standardized mean difference; for Dose.FC.CTG (log 2 fold change): vs plate median
# ISC-enriched organoids [3] = assay: Primary screen, 384-well 2.5-D organoid differentiation (ENR+CD, 6 days): carbachol-induced lysozyme secretion (LYZ.S); format: cell-based, murine; conditions: primary screen; for Dose.FC.LYZ.S: FC vs plate median; for Z.LYZ.S: standard z score; for SSMD.LYZ.S: strictly standardized mean difference; for Dose.FC.LYZ.S (log 2 fold change): vs plate median
# From the text: as §1
# [4] = Dose 0.08 uM, primary screen, standard z score
# [5] = Dose 0.40 uM, primary screen, standard z score
# [6] = Dose 2.00 uM, primary screen, standard z score
# [7] = Dose 10.00 uM, primary screen, standard z score
# [8] = primary screen, 1st of the 4 dose lines of the treatment (dose not given)
# [9] = primary screen, 2nd of the 4 dose lines of the treatment (dose not given)
# [10] = primary screen, 3rd of the 4 dose lines of the treatment (dose not given)
# [11] = primary screen, 4th of the 4 dose lines of the treatment (dose not given)
# [12] = 1st of the 4 dose lines of the treatment (dose not given)
# [13] = 2nd of the 4 dose lines of the treatment (dose not given)
# [14] = 3rd of the 4 dose lines of the treatment (dose not given)
# [15] = 4th of the 4 dose lines of the treatment (dose not given)
# [16] = primary screen, dose 0.08 uM, ENR+CD 6 days
# [17] = primary screen, dose 0.08 uM, standard z score of FC
# [18] = primary screen, dose 0.40 uM, ENR+CD 6 days
# [19] = primary screen, dose 0.40 uM, standard z score of FC
# [20] = primary screen, dose 2.00 uM, ENR+CD 6 days
# [21] = primary screen, dose 2.00 uM, standard z score of FC
# [22] = primary screen, dose 10.00 uM, ENR+CD 6 days
# [23] = primary screen, dose 10.00 uM, standard z score of FC
# [24] = Dose 0.08 uM, standard z score of FC
# [25] = Dose 0.40 uM, standard z score of FC
# [26] = Dose 2.00 uM, standard z score of FC
# [27] = Dose 10.00 uM, standard z score of FC
structure (smiles),measurement,setting,value
"CNC(=O)[C@H](Cc1c[nH]c2ccccc12)NC(=O)[C@@H](CC(=O)NO)CC(C)C [Ilomastat (GM6001, Galardin)]",Dose.FC.LYZ.NS,"ISC-enriched organoids [1]; Dose 0.08 uM, primary screen",0.055 log 2 fold change
same,Z.LYZ.NS,ISC-enriched organoids [1]; [4],0.482
same,Dose.FC.LYZ.NS,"ISC-enriched organoids [1]; Dose 0.40 uM, primary screen",−0.011 log 2 fold change
same,Z.LYZ.NS,ISC-enriched organoids [1]; [5],−0.092
same,Dose.FC.LYZ.NS,"ISC-enriched organoids [1]; Dose 2.00 uM, primary screen",0.007 log 2 fold change
same,Z.LYZ.NS,ISC-enriched organoids [1]; [6],0.064
same,Dose.FC.LYZ.NS,"ISC-enriched organoids [1]; Dose 10.00 uM, primary screen",−0.106 log 2 fold change
same,Z.LYZ.NS,ISC-enriched organoids [1]; [7],−0.919
same,SSMD.LYZ.NS,ISC-enriched organoids [1]; [8],0.305
same,SSMD.LYZ.NS,ISC-enriched organoids [1]; [9],−0.056
same,SSMD.LYZ.NS,ISC-enriched organoids [1]; [10],0.066
same,SSMD.LYZ.NS,ISC-enriched organoids [1]; [11],−0.635
same,Dose.FC.CTG,"ISC-enriched organoids [2]; Dose 0.08 uM, primary screen",0.197 log 2 fold change
same,Z.CTG,ISC-enriched organoids [2]; [4],0.470
same,Dose.FC.CTG,"ISC-enriched organoids [2]; Dose 0.40 uM, primary screen",0.163 log 2 fold change
same,Z.CTG,ISC-enriched organoids [2]; [5],0.389
same,Dose.FC.CTG,"ISC-enriched organoids [2]; Dose 2.00 uM, primary screen",0.091 log 2 fold change
same,Z.CTG,ISC-enriched organoids [2]; [6],0.216
same,Dose.FC.CTG,"ISC-enriched organoids [2]; Dose 10.00 uM, primary screen",−0.110 log 2 fold change
same,Z.CTG,ISC-enriched organoids [2]; [7],−0.264
same,SSMD.CTG,ISC-enriched organoids [2]; [8],0.482
same,SSMD.CTG,ISC-enriched organoids [2]; [9],0.406
same,SSMD.CTG,ISC-enriched organoids [2]; [10],0.321
same,SSMD.CTG,ISC-enriched organoids [2]; [11],−0.348
same,Dose.FC.LYZ.S,ISC-enriched organoids [3]; Dose 0.08 uM,0.214 log 2 fold change
same,Dose.FC.LYZ.S,ISC-enriched organoids [3]; Dose 0.40 uM,0.117 log 2 fold change
same,Dose.FC.LYZ.S,ISC-enriched organoids [3]; Dose 2.00 uM,0.024 log 2 fold change
same,Dose.FC.LYZ.S,ISC-enriched organoids [3]; Dose 10.00 uM,−0.078 log 2 fold change
same,Z.LYZ.S,ISC-enriched organoids [3]; [12],1.385
same,Z.LYZ.S,ISC-enriched organoids [3]; [13],0.754
same,Z.LYZ.S,ISC-enriched organoids [3]; [14],0.153
same,Z.LYZ.S,ISC-enriched organoids [3]; [15],−0.502
same,SSMD.LYZ.S,ISC-enriched organoids [3]; [12],1.175
same,SSMD.LYZ.S,ISC-enriched organoids [3]; [13],0.580
same,SSMD.LYZ.S,ISC-enriched organoids [3]; [14],0.164
same,SSMD.LYZ.S,ISC-enriched organoids [3]; [15],−0.329
Cc1cc(Nc2ccc(NC(=O)c3ccc(Nc4ccnc5ccccc45)cc3)cc2)nc(N)n1 [SGI-1027],Z.LYZ.NS (standard z score),"ISC-enriched organoids [1]; Dose 0.08 uM, primary screen",0.528
same,Dose.FC.LYZ.NS (log 2 fold change),"ISC-enriched organoids [1]; Dose 0.08 uM, primary screen",0.061
same,Z.LYZ.NS (standard z score),"ISC-enriched organoids [1]; Dose 0.40 uM, primary screen",0.735
same,Dose.FC.LYZ.NS (log 2 fold change),"ISC-enriched organoids [1]; Dose 0.40 uM, primary screen",0.084
same,Z.LYZ.NS (standard z score),"ISC-enriched organoids [1]; Dose 2.00 uM, primary screen",1.123
same,Dose.FC.LYZ.NS (log 2 fold change),"ISC-enriched organoids [1]; Dose 2.00 uM, primary screen",0.129
same,Z.LYZ.NS (standard z score),"ISC-enriched organoids [1]; Dose 10.00 uM, primary screen",−0.046
same,Dose.FC.LYZ.NS (log 2 fold change),"ISC-enriched organoids [1]; Dose 10.00 uM, primary screen",−0.005
same,Z.CTG (standard z score),"ISC-enriched organoids [2]; Dose 0.08 uM, primary screen",0.583
same,Dose.FC.CTG (log 2 fold change),"ISC-enriched organoids [2]; Dose 0.08 uM, primary screen",0.244
same,Z.CTG (standard z score),"ISC-enriched organoids [2]; Dose 0.40 uM, primary screen",0.712
same,Dose.FC.CTG (log 2 fold change),"ISC-enriched organoids [2]; Dose 0.40 uM, primary screen",0.298
same,Z.CTG (standard z score),"ISC-enriched organoids [2]; Dose 2.00 uM, primary screen",0.412
same,Dose.FC.CTG (log 2 fold change),"ISC-enriched organoids [2]; Dose 2.00 uM, primary screen",0.172
same,Z.CTG (standard z score),"ISC-enriched organoids [2]; Dose 10.00 uM, primary screen",0.125
same,Dose.FC.CTG (log 2 fold change),"ISC-enriched organoids [2]; Dose 10.00 uM, primary screen",0.052
same,Dose.FC.LYZ.S (log 2 fold change),ISC-enriched organoids [3]; Dose 0.08 uM,0.060
same,Dose.FC.LYZ.S (log 2 fold change),ISC-enriched organoids [3]; Dose 0.40 uM,0.145
same,Dose.FC.LYZ.S (log 2 fold change),ISC-enriched organoids [3]; Dose 2.00 uM,0.094
same,Dose.FC.LYZ.S (log 2 fold change),ISC-enriched organoids [3]; Dose 10.00 uM,0.018
COc1ccc2c(c1)c(CC(=O)N1CCOCC1)c(C)n2C(=O)c1ccc(Cl)cc1 [BML-190],Dose.FC.LYZ.NS,ISC-enriched organoids [1]; [16],0.072 log 2 fold change
same,Z.LYZ.NS,ISC-enriched organoids [1]; [17],0.623
same,Dose.FC.LYZ.NS,ISC-enriched organoids [1]; [18],−0.017 log 2 fold change
same,Z.LYZ.NS,ISC-enriched organoids [1]; [19],−0.152
same,Dose.FC.LYZ.NS,ISC-enriched organoids [1]; [20],0.116 log 2 fold change
same,Z.LYZ.NS,ISC-enriched organoids [1]; [21],1.011
same,Dose.FC.LYZ.NS,ISC-enriched organoids [1]; [22],0.209 log 2 fold change
same,Z.LYZ.NS,ISC-enriched organoids [1]; [23],1.823
same,Dose.FC.CTG,ISC-enriched organoids [2]; [16],−0.003 log 2 fold change
same,Z.CTG,ISC-enriched organoids [2]; [17],−0.007
same,Dose.FC.CTG,ISC-enriched organoids [2]; [18],−0.099 log 2 fold change
same,Z.CTG,ISC-enriched organoids [2]; [19],−0.237
same,Dose.FC.CTG,ISC-enriched organoids [2]; [20],−0.106 log 2 fold change
same,Z.CTG,ISC-enriched organoids [2]; [21],−0.254
same,Dose.FC.CTG,ISC-enriched organoids [2]; [22],−0.106 log 2 fold change
same,Z.CTG,ISC-enriched organoids [2]; [23],−0.254
same,Dose.FC.LYZ.S,"ISC-enriched organoids [3]; dose 0.08 uM, ENR+CD 6 days",0.060 log 2 fold change
same,Dose.FC.LYZ.S,"ISC-enriched organoids [3]; dose 0.40 uM, ENR+CD 6 days",−0.037 log 2 fold change
same,Dose.FC.LYZ.S,"ISC-enriched organoids [3]; dose 2.00 uM, ENR+CD 6 days",0.017 log 2 fold change
same,Dose.FC.LYZ.S,"ISC-enriched organoids [3]; dose 10.00 uM, ENR+CD 6 days",0.067 log 2 fold change
CC(C)(F)C[C@H](N[C@@H](c1ccc(-c2ccc(S(C)(=O)=O)cc2)cc1)C(F)(F)F)C(=O)NC1(C#N)CC1 [Odanacatib (MK-0822)],Dose.FC.LYZ.NS,"ISC-enriched organoids [1]; Dose 0.08 uM, primary screen",0.086 log 2 fold change
same,Z.LYZ.NS,ISC-enriched organoids [1]; [24],0.752
same,Dose.FC.LYZ.NS,"ISC-enriched organoids [1]; Dose 0.40 uM, primary screen",0.162 log 2 fold change
same,Z.LYZ.NS,ISC-enriched organoids [1]; [25],1.409
same,Dose.FC.LYZ.NS,"ISC-enriched organoids [1]; Dose 2.00 uM, primary screen",0.024 log 2 fold change
same,Z.LYZ.NS,ISC-enriched organoids [1]; [26],0.212
same,Dose.FC.LYZ.NS,"ISC-enriched organoids [1]; Dose 10.00 uM, primary screen",−0.035 log 2 fold change
same,Z.LYZ.NS,ISC-enriched organoids [1]; [27],−0.307
same,Dose.FC.CTG,"ISC-enriched organoids [2]; Dose 0.08 uM, primary screen",0.119 log 2 fold change
same,Z.CTG,ISC-enriched organoids [2]; [24],0.285
same,Dose.FC.CTG,"ISC-enriched organoids [2]; Dose 0.40 uM, primary screen",0.208 log 2 fold change
same,Z.CTG,ISC-enriched organoids [2]; [25],0.496
same,Dose.FC.CTG,"ISC-enriched organoids [2]; Dose 2.00 uM, primary screen",−0.008 log 2 fold change
same,Z.CTG,ISC-enriched organoids [2]; [26],−0.020
same,Dose.FC.CTG,"ISC-enriched organoids [2]; Dose 10.00 uM, primary screen",0.006 log 2 fold change
same,Z.CTG,ISC-enriched organoids [2]; [27],0.015
same,Dose.FC.LYZ.S,ISC-enriched organoids [3]; Dose 0.08 uM,0.091 log 2 fold change
same,Dose.FC.LYZ.S,ISC-enriched organoids [3]; Dose 0.40 uM,0.170 log 2 fold change
same,Dose.FC.LYZ.S,ISC-enriched organoids [3]; Dose 2.00 uM,0.036 log 2 fold change
same,Dose.FC.LYZ.S,ISC-enriched organoids [3]; Dose 10.00 uM,−0.074 log 2 fold change
